Experimental data published in patent US4999354A, “Imidazoquinoxaline compounds and their preparation and use” (A/S Ferrosan, priority 1987, dated 1991).

Tested on: benzodiazepine receptors
Assay: in vivo displacement of 3H-flunitrazepam from brain benzodiazepine receptors in mice
Set-up: species or system mice (female, NMR)
Conditions: test substance intraperitoneally 15 min before 3H-FNM i.v., forebrains taken 20 min after 3H-FNM
Method: The ED50 value represents the dose (mg/kg) of a test substance which causes the specific binding of flunitrazepam to benzodiazepine receptors in a living brain to be reduced to 50% of the control value.
Such an in vivo test is carried out as follows:
Results. The ED50 value is determined from dose response curves.

CC(C)n1c(=O)c2c(-c3nc(C4CC4)no3)ncn2c2ccccc21 [Compound 6, 3-(3-cyclopropyl-1,2,4-oxadiazol-5-yl)-4,5-dihydro-5-isopropyl-4-oxo-imidazo[1,5-a] quinoxaline]
ED50 (dose that inhibits 50% of specific 3H-flunitrazepam binding to brain benzodiazepine receptors): 0.28 mg/kg
